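Grown in 96-well plates, cells were treated for 48 hours with each compound at five concentrations. Insufficient inhibition: endpoint recorded as highest concentration tested. GI50 is the concentration that inhibits growth by half.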 The source made the active and inactive calls. No stated cut-off is given here; in the data, active = GI50 up to about 1.1 µM and inactive = higher.
Key:
Assay in all cases: growth of human tumour cells (NCI), 48 h
TK-10 = tested on: TK-10
OVCAR-8 = tested on: OVCAR-8
NCI-H460 = tested on: NCI-H460
HT-29 = tested on: HT-29
NCI-H226 = tested on: NCI-H226
IGROV-1 = tested on: IGROV-1
A498 = tested on: A498
SR = tested on: SR
RXF 393 = tested on: RXF 393
OVCAR-4 = tested on: OVCAR-4
SK-MEL-28 = tested on: SK-MEL-28
BT-549 = tested on: BT-549
DU-145 = tested on: DU-145
ACHN = tested on: ACHN
SK-MEL-5 = tested on: SK-MEL-5
MDA-MB-231 = tested on: MDA-MB-231
HCT-15 = tested on: HCT-15
UACC-62 = tested on: UACC-62
SN12C = tested on: SN12C
HCC 2998 = tested on: HCC 2998

| SMILES | GI50 (TK-10) | GI50 (OVCAR-8) | GI50 (NCI-H460) | GI50 (HT-29) | GI50 (NCI-H226) | GI50 (IGROV-1) | GI50 (A498) | GI50 (SR) | GI50 (RXF 393) | GI50 (OVCAR-4) | GI50 (SK-MEL-28) | GI50 (BT-549) | GI50 (DU-145) | GI50 (ACHN) | GI50 (SK-MEL-5) | GI50 (MDA-MB-231) | GI50 (HCT-15) | GI50 (UACC-62) | GI50 (SN12C) | GI50 (HCC 2998) |
| --- | --- | --- | --- | --- | --- | --- | --- | --- | --- | --- | --- | --- | --- | --- | --- | --- | --- | --- | --- | --- |
| Oc1ccc(Cl)cc1Sc1cc(Cl)ccc1O [FENTICLOR] | 17.1 µM (inactive) | 15 µM (inactive) | 10.7 µM (inactive) | 18 µM (inactive) | 20.5 µM (inactive) | 15.1 µM (inactive) | 11.2 µM (inactive) | 17.1 µM (inactive) | 14.2 µM (inactive) | 10 µM (inactive) | 11.8 µM (inactive) | 12.9 µM (inactive) | 14.2 µM (inactive) | 8.65 µM (inactive) | 3.83 µM (inactive) | 15 µM (inactive) | 8.65 µM | 5.66 µM (inactive) | 10.5 µM (inactive) | – |
| CN(C)CCCNc1c2c(=O)n(C)c(=O)nc-2n(C)c2ccccc12 | 5.26 µM (inactive) | 4.83 µM (inactive) | 2.85 µM (inactive) | 4.26 µM (inactive) | 5.07 µM (inactive) | 15.6 µM (inactive) | 9.27 µM (inactive) | 3 µM (inactive) | 7.8 µM (inactive) | 4.72 µM (inactive) | 10.4 µM (inactive) | 12.7 µM (inactive) | 6.41 µM (inactive) | 5.45 µM (inactive) | 6.21 µM (inactive) | 6 µM (inactive) | 20.1 µM | 5.22 µM (inactive) | 4.43 µM (inactive) | – |
| Cc1nc2[nH]ccn2c(=O)c1CCCl | 31 µM (inactive) | 26.7 µM (inactive) | 20.6 µM (inactive) | 33.7 µM (inactive) | > 100 µM (inactive) | 26.2 µM (inactive) | 19 µM (inactive) | 24.2 µM (inactive) | 19.4 µM (inactive) | 20.1 µM (inactive) | 30.1 µM (inactive) | 25.2 µM (inactive) | 23.6 µM (inactive) | 23.1 µM (inactive) | 17.1 µM (inactive) | 38.7 µM (inactive) | 39.7 µM | 24.8 µM (inactive) | 19.6 µM (inactive) | 19.2 µM (inactive) |
| COc1cccc(CCNc2c(C#N)c3n(c4ccccc4[n+]3C)c3ncccc23)c1 | 21.2 µM (inactive) | 1.7 µM (inactive) | 1.34 µM (inactive) | 1.41 µM (inactive) | 20.9 µM (inactive) | – | 20.9 µM (inactive) | > 100 µM (inactive) | 13.5 µM (inactive) | 2.04 µM (inactive) | 20.2 µM (inactive) | 23.3 µM (inactive) | 5.42 µM (inactive) | 16.7 µM (inactive) | 14.6 µM (inactive) | 4.52 µM (inactive) | 1.75 µM | 20.8 µM (inactive) | 15.9 µM (inactive) | 1.93 µM (inactive) |
| Nc1ncnc2c1ncn2[C@H]1CC[C@@H](NO)C1 | > 100 µM (inactive) | > 100 µM (inactive) | > 100 µM (inactive) | – | > 100 µM (inactive) | > 100 µM (inactive) | > 100 µM (inactive) | > 100 µM (inactive) | > 100 µM (inactive) | > 100 µM (inactive) | > 100 µM (inactive) | > 100 µM (inactive) | > 100 µM (inactive) | > 100 µM (inactive) | > 100 µM (inactive) | > 100 µM (inactive) | > 100 µM | > 100 µM (inactive) | > 100 µM (inactive) | > 100 µM (inactive) |
| Cc1ccc(C2(c3ccc(C)c(O)c3C)CCN(C)CC2)c(C)c1O | 19.9 µM (inactive) | > 100 µM (inactive) | 15.7 µM (inactive) | 45.1 µM (inactive) | > 100 µM (inactive) | > 100 µM (inactive) | 41.7 µM (inactive) | 49.8 µM (inactive) | 78.5 µM (inactive) | > 100 µM (inactive) | 30.4 µM (inactive) | > 100 µM (inactive) | > 100 µM (inactive) | > 100 µM (inactive) | > 100 µM (inactive) | 34.8 µM (inactive) | > 100 µM | > 100 µM (inactive) | 37.2 µM (inactive) | – |
| CC1=N[C@](C)(C2CC3C=CC2C3=O)COC1=O (some centres not stated) | > 100 µM (inactive) | > 100 µM (inactive) | > 100 µM (inactive) | > 100 µM (inactive) | > 100 µM (inactive) | > 100 µM (inactive) | > 100 µM (inactive) | > 100 µM (inactive) | > 100 µM (inactive) | > 100 µM (inactive) | > 100 µM (inactive) | > 100 µM (inactive) | > 100 µM (inactive) | > 100 µM (inactive) | > 100 µM (inactive) | > 100 µM (inactive) | – | > 100 µM (inactive) | > 100 µM (inactive) | > 100 µM (inactive) |
| CCn1ncc2c(=O)n3ncn(-c4ccc(Br)cc4)c3nc21 | > 100 µM (inactive) | > 100 µM (inactive) | – | > 100 µM (inactive) | > 100 µM (inactive) | > 100 µM (inactive) | > 100 µM (inactive) | 58.1 µM (inactive) | > 100 µM (inactive) | > 100 µM (inactive) | > 100 µM (inactive) | > 100 µM (inactive) | > 100 µM (inactive) | > 100 µM (inactive) | > 100 µM (inactive) | > 100 µM (inactive) | > 100 µM | > 100 µM (inactive) | > 100 µM (inactive) | > 100 µM (inactive) |
| O=c1[nH]c(Br)nc2[nH]nnc12 | 54.6 µM (inactive) | 8.79 µM (inactive) | > 100 µM (inactive) | > 100 µM (inactive) | > 100 µM (inactive) | > 100 µM (inactive) | > 100 µM (inactive) | 42.2 µM (inactive) | 35 µM (inactive) | 85.5 µM (inactive) | – | 18.1 µM (inactive) | 14.1 µM (inactive) | > 100 µM (inactive) | 68.9 µM (inactive) | 34.7 µM (inactive) | > 100 µM | 15.9 µM (inactive) | 32.4 µM (inactive) | > 100 µM (inactive) |
| Nc1ncc(Sc2ccccc2C(=O)O)s1 | > 100 µM (inactive) | > 100 µM (inactive) | > 100 µM (inactive) | > 100 µM (inactive) | > 100 µM (inactive) | > 100 µM (inactive) | > 100 µM (inactive) | > 100 µM (inactive) | > 100 µM (inactive) | – | > 100 µM (inactive) | > 100 µM (inactive) | > 100 µM (inactive) | > 100 µM (inactive) | > 100 µM (inactive) | > 100 µM (inactive) | > 100 µM | > 100 µM (inactive) | > 100 µM (inactive) | – |
| CCOC(=O)C(O)(C(=O)OCC)c1cc(C(C)(C)C)c(O)c(C(C)(C)C)c1 | 34.5 µM (inactive) | 15.5 µM (inactive) | – | 28.1 µM (inactive) | 16.4 µM (inactive) | 45 µM (inactive) | 50.8 µM (inactive) | 33.6 µM (inactive) | 21.1 µM (inactive) | > 100 µM (inactive) | 31.8 µM (inactive) | 39.2 µM (inactive) | 92 µM (inactive) | 41.3 µM (inactive) | 17.8 µM (inactive) | 53 µM (inactive) | 42 µM | 22.9 µM (inactive) | 43.4 µM (inactive) | – |
| CC(Cc1ccc(O)cc1)NCC(O)c1ccc(O)c(O)c1 (configuration not stated) | > 100 µM (inactive) | > 100 µM (inactive) | > 100 µM (inactive) | > 100 µM (inactive) | > 100 µM (inactive) | > 100 µM (inactive) | > 100 µM (inactive) | 88.3 µM (inactive) | > 100 µM (inactive) | > 100 µM (inactive) | > 100 µM (inactive) | > 100 µM (inactive) | > 100 µM (inactive) | > 100 µM (inactive) | > 100 µM (inactive) | 3.35 µM (inactive) | > 100 µM | > 100 µM (inactive) | > 100 µM (inactive) | – |
| Cc1nc2c(sc3nc4ccccc4n32)c(=O)[nH]1 | > 100 µM (inactive) | 42.5 µM (inactive) | – | – | > 100 µM (inactive) | > 100 µM (inactive) | > 100 µM (inactive) | > 100 µM (inactive) | > 100 µM (inactive) | > 100 µM (inactive) | > 100 µM (inactive) | > 100 µM (inactive) | > 100 µM (inactive) | > 100 µM (inactive) | > 100 µM (inactive) | > 100 µM (inactive) | > 100 µM | > 100 µM (inactive) | – | > 100 µM (inactive) |
| Cc1nc(O)nc(N/N=C/c2c3ccccc3c(Cl)c3ccccc23)c1C(=O)Nc1ccc(Cl)cc1 | 47.6 µM (inactive) | 68.9 µM (inactive) | 45.4 µM (inactive) | 55.7 µM (inactive) | 74 µM (inactive) | 71.1 µM (inactive) | 47.5 µM (inactive) | 38.5 µM (inactive) | – | 45.5 µM (inactive) | > 100 µM (inactive) | > 100 µM (inactive) | > 100 µM (inactive) | 33.8 µM (inactive) | 41.8 µM (inactive) | > 100 µM (inactive) | > 100 µM | 50.5 µM (inactive) | > 100 µM (inactive) | 44.6 µM (inactive) |
| C[C@@H]1CC[C@@]2(C)C(C(=O)O)=CCCC2[C@@]1(C)CC(=O)c1ccoc1 (some centres not stated) | > 25 µM (inactive) | > 25 µM (inactive) | > 25 µM (inactive) | > 25 µM (inactive) | > 25 µM (inactive) | > 25 µM (inactive) | > 25 µM (inactive) | > 25 µM (inactive) | > 25 µM (inactive) | > 25 µM (inactive) | > 25 µM (inactive) | > 25 µM (inactive) | > 25 µM (inactive) | > 25 µM (inactive) | > 25 µM (inactive) | > 25 µM (inactive) | > 25 µM | > 25 µM (inactive) | > 25 µM (inactive) | – |

Reference: ChEMBL document CHEMBL1201862, “PubChem BioAssay data set” (2004)
